From patent publication US7351294B2, “Surface cleaner” (Reckitt Benckiser (UK) Limited, priority 1999, dated 2008)

Legend:
[1] = cited from earlier work
[2] = Activity test: decolourisation of target dye gentian violet by sensitised TiO2 sol on an overhead projector, followed by UV/Visible spectrum
Method: A mixture of TiO2 sol (1 ml, 1 g/L) and tris(2,2′-dipyridyl4,4′-dicarboxylate)ruthenium(II)(dichloride) (4 ml, c=3.4×10^−5M) was stirred for about 1 minute using a rotamixer. The pH was recorded then the target dye gentian violet (GV dissolved in 20% ethanol solution, 0.05 ml or 0.08 ml, 0.03 wt/v %) was added and the mixture was stirred again. The initial colour of the sensitised TiO2 sol was yellow. Addition of gentian violet produced a purple colour at pH 3 and higher. A UV/Visible spectrum was taken at this stage. The vial containing the mixture was placed onto an overhead projector (2 cm height from the glass, in order to reduce heat). A UV/Visible spectrum was used to observe the colour change over a period of time at lamda max of the Target dye (Gentian violet or crystal violet)=588 nm in the white light spectrum. (OHP used: Model Ensign. Lamp:24V-250 W-3860 lux)
In order to get quantitative data a UV/Visible spectrum was taken at different times. […]

[3] = acid conditions (pH 3); cited from earlier work

Row | Compound | Sensitising properties ([1]; pH 7 compared with lower pH) | Decolourisation on repeated addition of gentian violet (0.08 ml) ([2]; Example 19, with TiO2 sol (5 ml, 10 g/L), slower rate than on the first addition) | Activity with other light sources versus overhead projector ([2]; with TiO2 sol, daylight bulbs 40 W and 100 W, tungsten filament 35 W and 100 W, fluorescent tube 8 W) | Activity in sensitised photocatalytic oxidation of herbicides [3] | Sensitising agent for charge injection into titania ([1]; acid pH, compared to tris(2,2′-bipridyl)ruthenium (II) dichloride)
1 | [Cl-].[Cl-].[Ru+2].c1ccc(-c2ccccn2)nc1.c1ccc(-c2ccccn2)nc1.c1ccc(-c2ccccn2)nc1 [tris(2,2′-bipridyl)ruthenium (II) dichloride, reference compound] | improve |  |  |  | 
2 | tris(2,2′-bipyridyl-4,4′-dicarboxylate)ruthenium (II) dichloride |  | still decolourising on the third addition | still works with all light sources tried albeit much slower | active | superior
